{"source": "paper PMC8543028", "about": "(Infection and Drug Resistance, 2021)", "key": {"M. tuberculosis H37Ra": {"tested_on": "M. tuberculosis H37Ra", "format": "cell-based, Mycobacterium tuberculosis"}, "[1]": {"tested_on": "M. tuberculosis H37Rv ATCC 27294 reference strain", "format": "cell-based, Mycobacterium tuberculosis"}}}
{"smiles": "O=[N+]([O-])c1ccc(/C(O)=C/C(=S)S)cc1", "note": "[Compound 11e, (Z)-3-hydroxy-3-(4-nitrophenyl)-prop-2-enedithioic acid]", "values": [{"measurement": "MIC100 in H37Ra", "setting": "M. tuberculosis H37Ra", "result": "active"}, {"measurement": "inhibitory activity compared with 11a", "setting": "[1]", "result": "eight times that of 11a"}]}
